From US20170368181A1, “Polymeric Nanoparticle” (The Provost Fellows and Scholars of the College of the Holy …, priority 2010, published 2017)

Tests used:
[1] = 20° C.; cited from earlier work
[2] = tested on: MMP 13; assay: IL-1β-induced MMP 13 mRNA in SW1353 cells, qRT-PCR; assay type: cell-based, human
Procedure: (§1) Cell assay: SW1353 human chondrocytes (ATCC) were maintained in RPMI 1640 medium supplemented with 10% Foetal Calf Serum, L-Glutamine and 1% antibiotics. SW1353 cells were seeded 2.5×10^5 cells per well into 6-well plates. After 24 hours media was replaced with serum free media (SFM) and incubated over night. sCT (10 μM) with either PGE2(1 μM) or IL-1β (10 ng/ml) were added to cells in SFM for 1 hour. Dexamethasone (Dex, 10 μM) was the positive control for the down-regulation of NR4A2. Untreated controls were treated in an identical manner, but with serum-free medium alone. RNA was isolated from SW1353 cells.
Mix to be added to each reaction tube is 4 μL of 5× 1st Strand Buffer, 2 μL of 0.1 M DTT, 1 μL of RNase Out and 1 μL MMLV. Taq Cat# 10342-020 (this contains 0.1 M DTT, 5× 1st S. B.). NR4A and MMP1, 3, 9 and 13 levels were measured by qRT-PCR and expression levels were normalized to GAPDH levels.
Effects of sCT and the nanoparticle on MMP mRNA levels were also investigated. […] Both sCT, HA, and the polymeric nanoparticle down regulated MMP 13 by 47%, 31% and 88% (FIG. 6B). MMPs 1 and 3 were also down regulated. […] Dexamethasone, which is known to down regulate NR4A2 and is used for the treatment of rheumatoid arthritis, was used as a positive control in all experiments. […]

[3] = tested on: NR4A2; assay: NR4A2 expression in ankle joints of K/BxN sera-induced mice; assay type: in vivo, mouse; conditions: intra-peritoneal delivery
Description: On day 4 after K/BxN serum transfer, mice were sacrificed, and their hind paws above the knee joint were harvested for histology to assess the effects of drug treatments on inflammation and bone and cartilage degradation. The histology sections were stained with hematoxylin and eosin (H&E) and Saffarin O and scored blindly under 3 different categories (i) inflammation (synovitis infiltration and pannus formation), (ii) cartilage erosion and (iii) bone erosion. RNA was also isolated from both the ankle joint and knee joint tissue to measure expression of NR4A biomarkers.
RNA was isolated from the ankle joints of control and ‘inflamed’ K/BxN mice to measure expression of NR4A biomarkers. In K/BxN sera-induced mice with no treatment (therefore showing inflammation), high levels of NR4A1, NR4A2 and NR4A3 were over expressed, compared to naïve mice with no serum transfer (no inflammation (FIG. 20).
Expression of NR4A2 was measured in all groups (FIG. 21). […] Histological sections of the knee joint were scored by an observer blinded to the treatment under 3 different criteria (i) inflammation (synovitis infiltration and pannus formation), (ii) cartilage erosion and (iii) bone erosion on a scale of 0-3 (0, none; 1, minimal invasion of meniscus; 2, partial invasion of meniscus; 3, severe invasion of meniscus). […]

[4] = tested on: NR4A2 mRNA; assay: PGE2-induced NR4A2 mRNA in SW1353 cells, qRT-PCR; assay type: cell-based, human; conditions: PGE2 1 μM, 1 hour
Procedure: as §1
RNA Extraction: Media was removed from the cells and 1 mL of TRIzol® (Invitrogen) was added to each well. Cells were homogenised by pipetting the added TRIzol® up and down for 8-10 times. […] Pellet was then resuspended in an appropriate volume of RNASE/DNASE free water and RNA in each sample was quantified at A260. […]
Mix to be added to each reaction tube is 4 μL of 5× 1st Strand Buffer, 2 μL of 0.1 M DTT, 1 μL of RNase Out and 1 μL MMLV. […] NR4A and MMP1, 3, 9 and 13 levels were measured by qRT-PCR and expression levels were normalized to GAPDH levels.
SW1353 cells were treated with sCT alone or polymeric nanoparticles comprising hyaluronic acid, chitosan, and sCT and PGE2 for 1 hour. Total RNA was extracted and assayed for NR4A2 mRNA levels by quantitative RT-PCR. […]

For salmon calcitonin [sCT], the water solubility [1] is given as “about 1 mg/ml”, the “down regulation of MMP 13 mRNA” value [2] is given as 47% and the “NR4A2 expression in the ankle joints” value [3] is given as “reduce NR4A2 expression”. The “inhibition of PGE2 induced NR4A2 transcript levels” value [4] was 49%.
